Activity calls are given as the source filed them. The calls are words filed in the database; no cut-off is given here.
Key:
CHO-K1 = experiment: Decrease in PTP1B protein expression in CHOK1 cells at 20 uM measured after 48 hrs by Western blot analysis; assay type: functional, cell-based; details: Cricetulus griseus
Cricetulus griseus [1] = organism: Cricetulus griseus; experiment: Inhibition of PTP1B in CHOK1 cells assessed as increase in phosphorylation of AKT at Ser473 residue at 20 uM measured after 48 hrs by Western blot analysis; assay type: cell-based
[2] = molecular target: T1, Tyrosine-protein phosphatase non-receptor type 1 (Homo sapiens) (UniProt P18031); experiment: Inhibition of human recombinant full length PTP1B expressed in Escherichia coli cells at 1 uM using pNPP as substrate preincubated with enzyme for 5 mins followed by incubation with substrate for 10 mins by spectrophotometry analysis relative to control
T1 sequence (whole entry): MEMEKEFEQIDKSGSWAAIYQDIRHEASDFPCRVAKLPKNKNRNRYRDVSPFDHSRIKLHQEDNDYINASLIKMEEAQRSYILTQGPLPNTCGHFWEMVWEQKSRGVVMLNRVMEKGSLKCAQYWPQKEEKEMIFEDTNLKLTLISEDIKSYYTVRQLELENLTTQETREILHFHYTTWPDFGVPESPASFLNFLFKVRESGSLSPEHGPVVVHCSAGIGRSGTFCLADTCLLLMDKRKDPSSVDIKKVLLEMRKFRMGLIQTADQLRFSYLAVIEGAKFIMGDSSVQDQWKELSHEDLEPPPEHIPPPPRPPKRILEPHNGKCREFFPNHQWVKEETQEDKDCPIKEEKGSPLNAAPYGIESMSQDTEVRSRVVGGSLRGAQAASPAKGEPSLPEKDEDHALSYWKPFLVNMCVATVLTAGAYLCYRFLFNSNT

Cricetulus griseus [3] = organism: Cricetulus griseus; experiment: Inhibition of PTP1B in CHOK1 cells assessed as increase in phosphorylation of GSK-3beta at Ser9 residue at 20 uM measured after 48 hrs by Western blot analysis; assay type: cell-based
INS1 [4] = experiment: Increase in insulin secretion in high glucose-treated rat INS-1 cells preincubated with compound and 40 mM glucose for 48 hrs followed by stimulation with KRB buffer containing 5 to 30 mM glucose for 60 mins and measured by ELISA; assay type: functional, cell-based
[5] = Inhibition of baker's yeast alpha-glucosidase using p-nitrophenyl alpha-D-glucopyranoside as substrate measured after 30 mins by spectrophotometry analysis; design: species or system Saccharomyces cerevisiae
[6] = molecular target: T1, Tyrosine-protein phosphatase non-receptor type 1 (Homo sapiens); experiment: Inhibition of human recombinant full length PTP1B expressed in Escherichia coli cells at 5 uM using pNPP as substrate preincubated with enzyme for 5 mins followed by incubation with substrate for 10 mins by spectrophotometry analysis relative to control
HepG2 [7] = experiment: Increase in glucose consumption in human HepG2 cells assessed as glucose concentration in the medium treated at 0.4 to 10 uM after incubating cells in the medium containing glucose measured after 24 hrs by glucose oxidase method; assay type: functional, cell-based
[8] = molecular target: T1, Tyrosine-protein phosphatase non-receptor type 1 (Homo sapiens); experiment: Inhibition of human recombinant full length PTP1B expressed in Escherichia coli cells at 10 uM using pNPP as substrate preincubated with enzyme for 5 mins followed by incubation with substrate for 10 mins by spectrophotometry analysis relative to control
HepG2 [9] = experiment: Increase in glucose consumption in human HepG2 cells assessed as glucose concentration in the medium treated at 500 uM after incubating cells in the medium containing glucose measured after 24 hrs by glucose oxidase method; assay type: functional, cell-based
INS1 [10] = experiment: Increase in insulin secretion in high glucose-treated rat INS-1 cells at 0.15 uM preincubated with compound and 40 mM glucose for 48 hrs followed by stimulation with KRB buffer containing 5 to 30 mM glucose for 60 mins and measured by ELISA; assay type: functional, cell-based
Mus musculus [11] = experiment: Antihyperlipidemic activity in STZ-induced type-2 diabetes Kunming mouse model assessed as serum triglyceride level at 50 mg/kg, po for 4 weeks (reference value: 3.08 +/- 0.84 mM); assay type: functional
Mus musculus [12] = experiment: Antihyperlipidemic activity in STZ-induced type-2 diabetes Kunming mouse model assessed as serum total cholesterol level at 50 mg/kg, po for 4 weeks (reference value: 9.75 +/-0.11 mM); assay type: functional
Mus musculus [13] = experiment: Antidiabetic activity in STZ-induced type-2 diabetes Kunming mouse model assessed as decrease in fasting blood glucose level at 50 to 100 mg/kg, po administered for 4 weeks by glucometric analysis; assay type: functional, organism-based
Mus musculus [14] = experiment: Antihyperlipidemic activity in STZ-induced type-2 diabetes Kunming mouse model assessed as decrease in serum total cholesterol level at 100 mg/kg, po for 4 weeks relative to diabetic control; assay type: functional; details: 672 h
Mus musculus [15] = experiment: Antihyperlipidemic activity in STZ-induced type-2 diabetes Kunming mouse model assessed as serum total cholesterol level at 100 mg/kg, po for 4 weeks (reference value: 9.75 +/-0.11 mM); assay type: functional
Mus musculus [16] = experiment: Antidiabetic activity in STZ-induced type-2 diabetes Kunming mouse model assessed as decrease in blood glucose AUC at 50 to 100 mg/kg, po administered for 4 weeks by glucometric analysis; assay type: functional, organism-based
Mus musculus [17] = experiment: Antidiabetic activity in STZ-induced type-2 diabetes Kunming mouse model assessed as increase in glucose tolerance at 50 to 100 mg/kg, po for 13 days followed by overnight fasting and later orally treated with glucose for 60 mins and measured after 120 mins by OGTT; assay type: functional, organism-based
Mus musculus [18] = experiment: Antihyperlipidemic activity in STZ-induced type-2 diabetes Kunming mouse model assessed as decrease in serum total cholesterol level at 50 mg/kg, po for 4 weeks relative to diabetic control; assay type: functional; details: 672 h
Mus musculus [19] = experiment: Antidiabetic activity in STZ-induced type-2 diabetes Kunming mouse model assessed as decrease in postprandial glucose level at 50 mg/kg, po for 2 hrs by glucometer analysis; assay type: functional, organism-based
Mus musculus [20] = experiment: Antihyperlipidemic activity in STZ-induced type-2 diabetes Kunming mouse model assessed as serum triglyceride level at 100 mg/kg, po for 4 weeks (reference value: 3.08 +/- 0.84 mM); assay type: functional
Mus musculus [21] = experiment: Antihyperlipidemic activity in STZ-induced type-2 diabetes Kunming mouse model assessed as decrease in serum triglyceride level at 50 mg/kg, po for 4 weeks relative to diabetic control; assay type: functional; details: 672 h
Mus musculus [22] = experiment: Antidiabetic activity in STZ-induced type-2 diabetes Kunming mouse model assessed as decrease in blood glucose AUC at 100 mg/kg, po for 14 days followed by overnight fasting and later orally treated with maltose for 60 mins and measured after 120 mins by OMTT; assay type: functional
Mus musculus [23] = experiment: Antidiabetic activity in STZ-induced type-2 diabetes Kunming mouse model assessed as decrease in blood glucose AUC at 50 mg/kg, po for 14 days followed by overnight fasting and later orally treated with maltose for 60 mins and measured after 120 mins by OMTT; assay type: functional
Mus musculus [24] = experiment: Antihyperlipidemic activity in STZ-induced type-2 diabetes Kunming mouse model assessed as decrease in serum triglyceride level at 100 mg/kg, po for 4 weeks relative to diabetic control; assay type: functional; details: 672 h

| Compound | inhibition (CHO-K1) | Activity (Cricetulus griseus [1]) | inhibition [2] [%] | Activity (Cricetulus griseus [3]) | IC50 [5] [µM] | inhibition [6] [%] | Activity (HepG2 [7]) | inhibition [8] [%] | Activity (Mus musculus [11]) [mM] | Activity (Mus musculus [12]) [mM] | further results |
| --- | --- | --- | --- | --- | --- | --- | --- | --- | --- | --- | --- |
| COc1ccc(-c2cc(=O)c3c(O)cc(O[C@@H]4O[C@H](CO)[C@@H](O)[C@H](O)[C@H]4O)cc3o2)cc1O | Active | Active | 27.7 | Active | > 100 | 23.4 | Active | 29.8 |  |  | Activity (INS1 [4]): Dose-dependent effect |
| CN(C)C(=N)NC(=N)N |  |  |  |  |  |  |  |  |  |  | Activity (HepG2 [9]): Active |
| COc1ccc(-c2cc(=O)c3c(O)cc(O)cc3o2)cc1O | Active | Active | 22.8 | Active |  | 27.1 | Active | 28.3 |  |  |  |
| COc1ccc(Cl)cc1C(=O)NCCc1ccc(S(=O)(=O)NC(=O)NC2CCCCC2)cc1 |  |  |  |  |  |  |  |  |  |  | Activity (INS1 [10]): Active |
| COc1ccc(-c2cc(=O)c3c(O)cc(O)cc3o2)cc1 [ACACETIN] | Active | Active | 38.2 | Active | > 100 | 36.3 | Active | 32 |  |  |  |
| C[C@H]1O[C@H](O[C@H]2[C@H](O)[C@@H](O)[C@@H](O[C@H]3[C@H](O)[C@@H](O)C(O)O[C@@H]3CO)O[C@@H]2CO)[C@H](O)[C@@H](O)[C@@H]1N[C@H]1C=C(CO)[C@@H](O)[C@H](O)[C@H]1O (some centres not stated) [ACARBOSE] |  |  |  |  | 236 |  |  |  | 3.02 | 9.61 |  |
| O=c1cc(-c2ccc(O)cc2)oc2cc(O)cc(O)c12 [APIGENIN] | Active | Active | 29.8 | Active | 9.04 | 20.2 | Active | 39.2 | 3.13 | 7.6 | inhibition (Mus musculus [13]): Active; inhibition in vivo at 100 mg/kg (Mus musculus [14]): 15.7%; Activity (Mus musculus [15]): 8.22 mM; inhibition (Mus musculus [16]): Active; Activity (Mus musculus [17]): Active; inhibition in vivo at 50 mg/kg (Mus musculus [18]): 22.1%; inhibition (Mus musculus [19]): Active; Activity (Mus musculus [20]): 3.06 mM |
| COc1ccc(-c2cc(=O)c3c(O)cc(O[C@@H]4O[C@H](CO[C@@H]5O[C@@H](C)[C@H](O)[C@@H](O)[C@H]5O)[C@@H](O)[C@H](O)[C@H]4O)cc3o2)cc1O [DIOSMIN] | Active | Active | 36.3 | Active | > 100 | 32.8 | Active | 30.5 | 2.04 | 9.18 | inhibition (Mus musculus [13]): Active; inhibition in vivo at 100 mg/kg (Mus musculus [14]): 8.3%; Activity (Mus musculus [15]): 8.94 mM; inhibition (Mus musculus [16]): Active; Activity (INS1 [4]): Dose-dependent effect; inhibition in vivo at 50 mg/kg (Mus musculus [21]): 33.8%; inhibition in vivo at 100 mg/kg (Mus musculus [22]): 13.5%; Activity (Mus musculus [17]): Active; inhibition (Mus musculus [19]): Active; inhibition in vivo at 50 mg/kg (Mus musculus [23]): 11.2%; inhibition in vivo at 100 mg/kg (Mus musculus [24]): 27.3%; Activity (Mus musculus [20]): 2.24 mM |
| O=c1cc(-c2ccc(O)c(O)c2)oc2cc(O)cc(O)c12 [LUTEOLIN] | Active | Active | 19.8 | Active | 16.6 | 40.8 | Active | 39.9 |  |  |  |

— ChEMBL document CHEMBL4364244, “New insights into the biological activities of Chrysanthemum morifolium: Natural flavonoids alleviate diabetes by targeting α-glucosidase and the PTP-1B signaling pathway” (Eur J Med Chem, 2019)
